Data on five molecules can be found in patent EP4818172A1, “ASCORBIC ACID DERIVATIVES AND COSMETIC CONTAINING SAME” (Seiwa Kasei Co., Ltd., priority 2023, dated 2025).

Each structure is given as a SMILES string.

The nature of data set [1]: Stability test -2: residual rate in cream of pH 7 or 9 stored at 50°C. The data set is classed as physicochemical. Conditions: cream with 4.0 W/W% derivative. An outline of the steps: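 Each derivative was formulated into a cream by heating and mixing two component phases, cooling, then adding a third component, giving a final pH of 7 or 9. The creams were kept at 50°C for up to 4 weeks, and the remaining amount of derivative was measured to give a residual rate.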

Data set [2] is described as follows: Stability test -2: odor and coloration of cream stored at 50°C. The data set is classed as physicochemical. Conditions: Test Example 2, cream stored at 50°C, total score of 10 panelists. An outline of the steps:
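Creams at pH 7 or 9 containing the test samples stored at 50°C for 4 weeks. Odor and coloration scored by 10 panelists against the freshly prepared cream; total scores classed as ○ (25 or more), △ (16-24) or × (15 or less).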

The test system of data set [3] is Normal human dermal fibroblasts. The data set is described as follows: Collagen production promoting effect (ELISA of free collagen in supernatant). The data set is classed as cell-based. Conditions: sample at 10 mM or less, cultured 48 hours, % of control group (100%), N=3. The method, then:
Normal human dermal fibroblasts were prepared in D-MEM containing 5% (v/v) fetal bovine serum to a cell density of 2.5 × 10^4 cell s /well, and then pre-incubated for 24 hours on a 96-well plate. After removing the medium, samples prepared to a predetermined concentration in D-MEM containing 5% (v/v) fetal bovine serum were added to each well and cultured for 48 hours. After the culture was completed, the amount of free collagen in the supernatant was quantified by ELISA. Measurements were performed in triplicate (N=3).
The amount of collagen produced when the sample was measured at a concentration of 10 mM or less was compared with that of the control group, and the results (% values when the control group was set to 100%) are shown in Table 17 based on the following criteria. • <100%: ± • 100-140%: + • 140%<: ++ [Table 17]
For orientation: In an ELISA, binding on a coated surface is turned into a signal by an enzyme label.

Data set [4] relates to Normal human dermal fibroblasts (NHDF). The data set is described as follows: Hyaluronic acid production promoting effect (ELISA of supernatant). Conditions: sample at 10 mM or less in serum-free D-MEM, cultured 48 hours, % of control group (100%), N=3. The format is cell-based. A digest of the protocol: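 NHDF pre-incubated 24 h in D-MEM/5% FBS, then exposed to samples (10 mM or less) in serum-free D-MEM for 48 h. Supernatant hyaluronic acid measured by ELISA, triplicate. Output expressed as % of untreated control (control = 100%), graded ±/+/++ at <100%, 100-120%, >120%.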

Data set [5] has as its system Normal human epidermal keratinocytes. The data set is described as follows: Antioxidant effect: ROS production inhibition after H2O2 (DCFHDA probe). The data set is classed as cell-based. Conditions: sample at 10 mM or less, 24 hours, then 0.2 mM H2O2 for 2 hours, N=4. The method, then:
Normal human epidermal keratinocytes were seeded onto a 96-well plate using KG2 medium at a cell density of 2.0 × 10^4 cells/well. After 24 hours of pre-incubation, samples adjusted to a predetermined concentration in KG2 medium were added to each well. After 24 hours of incubation, the medium was removed, followed by washing with HBSS(-) and the incorporation of the ROS-reactive fluorescent probe DCFHDA for 30 minutes. The cells were again washed with HBSS(-), treated with 0.2 mM H2O2, and incubated for 2 hours. The fluorescence intensity was measured, and the amount of ROS produced per unit protein was calculated by dividing the fluorescence intensity by the amount of protein quantified by the BCA method, resulting in an analytical value of 1. Furthermore, the amount of ROS production calculated without adding the sample adjusted to a predetermined concentration using the above test method was set to analytical value 2; and the amount of ROS production calculated without adding the sample or 0.2 mM H2O2 was set to analytical value 3.
ROS production inhibition rate (%) was calculated using the following formula. The higher the ROS production inhibition rate, the greater the antioxidant effect can be evaluated to be.
ROS production inhibition rate (%) = [(analysis value 2) - (analysis value 1)] / [(analysis value 2) - (analysis value 3)] × 100
The ROS production inhibition rate when the sample was measured at a concentration of 10 mM or less was evaluated as follows. Note that the measurement was performed in N=4. • <20%: + • 20-40%: ++ • 40%<: +++ [Table 21]

Take `CCCC(=O)OCC(O)C1OC(=O)C2=C1OCCCCO2` (stereo not shown) [synthesis example 9, 6-O-butanoyl-2,3-O-(1,4-butanediyl) ascorbic acid]: in data set [1] (pH7, stored at 50°C), the “Residual Rate After 2 weeks” value is on record as “⊚ (95% or more)” and the “Residual Rate After 4 weeks” value was “⊚ (95% or more)”. In data set [1] (pH9, stored at 50°C), the “Residual Rate After 2 weeks” value is “⊚ (95% or more)” and the “Residual Rate After 4 weeks” value is “⊚ (95% or more)”. Also, in data set [2], the “Coloration After 2 weeks” value is “○ (Total score of 10 panelists is 25 or more)”, the “Odor After 2 weeks” value is “○ (Total score of 10 panelists is 25 or more)”, the “Coloration After 4 weeks” value is given as “○ (Total score of 10 panelists is 25 or more)” and the “Odor After 4 weeks” value was “Δ”. Also, in data set [3], the Collagen production-promoting effect entry is listed as “+ (100-140%)”. Also, the “Hyaluronic acid production-promoting effect” value in data set [4] was “++ (120%<)”. Besides, the “Antioxidant effect (ROS production inhibition rate)” value in data set [5] is “++ (20-40%)”.
In the case of `CCCC(=O)OCC(OC(=O)CCC)C1OC(=O)C2=C1OCCCCO2` (stereo not shown) [synthesis example 10, 5,6-O-dibutanoyl-2,3-O-(1,4-butanediyl) ascorbic acid], in data set [1] (pH7, stored at 50°C), the “Residual Rate After 2 weeks” value is on record as “⊚ (95% or more)” and the “Residual Rate After 4 weeks” value is reported as “⊚ (95% or more)”. Also, in data set [1] (pH9, stored at 50°C), the “Residual Rate After 2 weeks” value was “⊚ (95% or more)” and the “Residual Rate After 4 weeks” value was “⊚ (95% or more)”. In addition, in data set [2], the “Coloration After 2 weeks” value is “○ (Total score of 10 panelists is 25 or more)”, the “Odor After 2 weeks” value was “○ (Total score of 10 panelists is 25 or more)”, the “Coloration After 4 weeks” value is recorded as “○ (Total score of 10 panelists is 25 or more)” and the “Odor After 4 weeks” value is given as “Δ”. For the same molecule, the Collagen production-promoting effect entry in data set [3] is “++ (140%<)”. Also, the “Hyaluronic acid production-promoting effect” value in data set [4] is “++ (120%<)”. Moreover, the “Antioxidant effect (ROS production inhibition rate)” value in data set [5] is listed as “+ (<20%)”.
On to `CC(C)CCCCCCCCCCCCCCC(=O)OC[C@H](O)[C@H]1OC(=O)C2=C1OCCCCO2` [synthesis example 17, 6-O-isostearoyl-2,3-O-(1,4-butanediyl) ascorbic acid], for which, in data set [1] (pH7, stored at 50°C), the “Residual Rate After 2 weeks” value is reported as “⊚ (95% or more)” and the “Residual Rate After 4 weeks” value is recorded as “⊚ (95% or more)”. In data set [1] (pH9, stored at 50°C), the “Residual Rate After 2 weeks” value is “⊚ (95% or more)” and the “Residual Rate After 4 weeks” value is “⊚ (95% or more)”. Besides, in data set [2], the “Coloration After 2 weeks” value was “○ (Total score of 10 panelists is 25 or more)”, the “Odor After 2 weeks” value is on record as “○ (Total score of 10 panelists is 25 or more)”, the “Coloration After 4 weeks” value is reported as “○ (Total score of 10 panelists is 25 or more)” and the “Odor After 4 weeks” value was “Δ”. In data set [3], the Collagen production-promoting effect entry is recorded as “++ (140%<)”. Besides, the “Hyaluronic acid production-promoting effect” value in data set [4] is reported as “++ (120%<)”. In data set [5], the “Antioxidant effect (ROS production inhibition rate)” value is recorded as “+ (<20%)”.
Turning to `CCCCCCCC(=O)OCC(OC(=O)CCCCCCC)C1OC(=O)C2=C1OCCCO2` (stereo not shown) [synthesis example 23, 5,6-O-dioctanoyl-2,3-O-(1,3-propanediyl) ascorbic acid], in data set [1] (pH7, stored at 50°C), the “Residual Rate After 2 weeks” value is on record as “⊚ (95% or more)” and the “Residual Rate After 4 weeks” value is reported as “⊚ (95% or more)”. Also, in data set [1] (pH9, stored at 50°C), the “Residual Rate After 2 weeks” value is recorded as “⊚ (95% or more)” and the “Residual Rate After 4 weeks” value is recorded as “⊚ (95% or more)”. Moreover, in data set [2], the “Coloration After 2 weeks” value is on record as “○ (Total score of 10 panelists is 25 or more)”, the “Odor After 2 weeks” value is on record as “○ (Total score of 10 panelists is 25 or more)”, the “Coloration After 4 weeks” value is “○ (Total score of 10 panelists is 25 or more)” and the “Odor After 4 weeks” value is reported as “Δ”. In data set [3], the Collagen production-promoting effect entry is “++ (140%<)”. Also, in data set [4], the “Hyaluronic acid production-promoting effect” value is “+ (100-120%)”. The “Antioxidant effect (ROS production inhibition rate)” value in data set [5] is reported as “+ (<20%)”.
For `CCCCCCCCCCCCCCCC(=O)OCC(O)C1OC(=O)C2=C1OCCCCO2` (stereo not shown) [synthetic example 15, 6-O-palmitoyl-2,3-O-(1,4-butanediyl) ascorbic acid], in data set [1] (pH7, stored at 50°C), the “Residual Rate After 2 weeks” value is “⊚ (95% or more)” and the “Residual Rate After 4 weeks” value is “⊚ (95% or more)”. Moreover, in data set [1] (pH9, stored at 50°C), the “Residual Rate After 2 weeks” value is “⊚ (95% or more)” and the “Residual Rate After 4 weeks” value was “⊚ (95% or more)”. For the same molecule, in data set [2], the “Coloration After 2 weeks” value was “○ (Total score of 10 panelists is 25 or more)”, the “Odor After 2 weeks” value is “○ (Total score of 10 panelists is 25 or more)”, the “Coloration After 4 weeks” value is “○ (Total score of 10 panelists is 25 or more)” and the “Odor After 4 weeks” value is given as “Δ”. The Collagen production-promoting effect entry in data set [3] is on record as “++ (140%<)”. The “Hyaluronic acid production-promoting effect” value in data set [4] is “++ (120%<)”. Further, the “Antioxidant effect (ROS production inhibition rate)” value in data set [5] is “+ (<20%)”.
